{"source": "patent US20230276792A1", "about": "“SELECTIVE HERBICIDES BASED ON SUBSTITUTED ISOXAZOLIN CARBOXAMIDES AND CLOQUINTOCET-MEXYL” (Bayer Aktiengesellschaft, priority 2020, published 2023)", "format_in_all_cases": "in vivo", "key": {"[1]": {"system": "spring wheat, TRZAS Triso", "test": "Safener seed treatment, pre-emergence herbicide application, crop damage", "conditions": "cloquintocet-mexyl 0.25 g a.i./kg seed", "method": "(§1) For the safener seed treatment, sufficient seeds of the respective crops (spring wheat, TRZAS; spring barley, HORVS; maize, ZEAMA) were weighed into screw top glass bottles approximately twice the volume of the seeds.\n(§2) The specified safeners, formulated as wettable powder (WP) were weighed out so that the specified rates (g a.i./kg seed) would be obtained, dissolved in water (1 ml water per 10 g of seeds), and added to the seeds to produce a slurry.\n(§3) The bottles were capped and then placed in an overhead shaker (set at medium speed for ca. 60 minutes) so that the seeds were evenly coated with the slurry. The bottles were uncapped and the seeds were either placed on paper and dried for an interval of 3-4 hours prior to sowing, or directly sown. Seeds were placed in sandy loam soil in pots of a diameter of 7-8 cm, and covered with soil.\nPre-emergence application of the specified herbicides was done subsequently, on two sets of plants: • a) seed treatment with safener, as described above • b) no safener treatment\nThe herbicides were formulated as WP and was sprayed onto the soil surface as an aqueous suspension at an equivalent water application rate of 300 l/ha.\n(§4) After application, the test plants were kept in the greenhouse under good growth conditions. At intervals up to 4 weeks after application (=28 days after treatment; DAT), % crop damage observed on the treated plants was scored visually in comparison to control plants that had not received any safener or herbicide treatment.\nValues in the table below are mean values of at least 2 replicates.\n(§5) Reduction [Difference]=herbicide damage without safener−herbicide damage with safener\n(§6) Reduction [%]=(Reduction [Difference]*100)/herbicide damage without safener\na) Plant Species, Variety: TRZAS Triso, Safener (SAF): Cloquintocet-Mexyl"}, "[2]": {"system": "spring barley, HORVS Montoya", "test": "Safener seed treatment, pre-emergence herbicide application, crop damage", "conditions": "21 (Final) DAT; HER dose 15 g a.i./ha; cloquintocet-mexyl 0.25 g a.i./kg seed", "method": "as §1, §2, §3\nPre-emergence application of the specified herbicides was done subsequently, on two sets of plants: • a) seed treatment with safener, as described above • b) no safener treatment […]\nas §4, with “treatment. […]” for “treatment.”"}, "[3]": {"system": "spring wheat, TRZAS Triso", "test": "Safener seed treatment, post-emergence herbicide application, crop damage", "conditions": "21 DAT; for HER effect + SAF [%]: cloquintocet-mexyl 0, 5 g a.i./kg seed; for HER effect [%]: without safener", "from_the_text": "For safener seed treatment trials, sufficient seed amounts of the respective crops (spring wheat (TRZAS); spring barley (HORVS)) were weighed into screw cap glass bottles with a minimum volume trice of the seeds.\nAs a first step, specified safeners formulated as wettable powder (WP) or wettable granules (WG) were weighed out for the required dosages (g a.i./kg seed), corresponding to the seed amounts. The safener amounts were mixed with a coloured slurry blind formulation type, pre-diluted with milk at 3.5% fat rate (25 mgs slurry formulation plus 2 ml milk per 10 grams of seed). A tube roller was used for coating. The solutions were gradually pipetted each on the rotating seeds followed by coating for min. 3 hours until all liquid had been soaked up by the seeds. Thereafter, the coated seeds were put flat on open trays for drying over night at room temperature.\nTreated seeds were then placed into pots (7 cm diameter) on the surface of sandy loam, pressed down, flat covered with additional soil and finally covered with sandy soil, also pressed down, watered, and kept under good growth conditions in a greenhouse, until the plants had reached 2-leaf-stage (BBCH 12).\nAt that stage, post-emergence application of the specified herbicides was done on: • a) pot sets containing plants with safener-coated seeds as described above, • b) as a reference, pot sets of plants without seed treatment.\nThe herbicides were formulated as wettable powder (WP). Equivalent to the spray area, compound amounts were weighed out and diluted related to the water application rate (300 l/ha) to an aqueous suspension plus additive (1 l/ha MERO). Dosage related equivalents were conventionally sprayed on trays with the potted plants.\nAfter application, the test plants were kept under good growth conditions in a greenhouse. Assessment timings were 10 and 21 days after treatment (DAT) with the herbicide, by visual scoring of the crop damage in % (comparison of untreated with treated plants, either sprayed only with herbicide or with herbicide on plants with treated seeds).\nas §5, §6\nb) Plant Species, Variety: TRZAS Triso, Safener (SAF): Cloquintocet-Mexyl"}, "[4]": {"conditions": "11 (Interim) DAT, HER dose 15 g a.i./ha"}, "[5]": {"conditions": "21 (Final) DAT, HER dose 15 g a.i./ha"}}, "data": [{"smiles": "C=CC1(C(=O)NC2COC(C(=O)OC)C2)CC(c2cc(F)cc(F)c2)=NO1", "note": "(mixture of isomers) [Example 1.68]", "values": [{"measurement": "Reduction [Difference]", "setting": "[1]; 11 (Interim) DAT, HER dose 5 g a.i./ha", "value": 45}, {"measurement": "Reduction [%]", "setting": "[1]; [4]", "value": 88, "unit": "%"}, {"measurement": "Reduction [Difference]", "setting": "[1]; [4]", "value": 70}, {"measurement": "Reduction [Difference]", "setting": "[1]; 21 (Final) DAT, HER dose 5 g a.i./ha", "value": 45}, {"measurement": "Reduction [%]", "setting": "[1]; [5]", "value": 94, "unit": "%"}, {"measurement": "Reduction [Difference]", "setting": "[1]; [5]", "value": 80}, {"measurement": "Reduction [Difference]", "setting": "[2]", "value": 80}, {"measurement": "HER effect + SAF [%]", "setting": "[3]; HER dose 1 g a.i./ha", "value": 20, "unit": "%"}, {"measurement": "HER effect [%]", "setting": "[3]; HER dose 1 g a.i./ha", "value": 80, "unit": "%"}, {"measurement": "HER effect + SAF [%]", "setting": "[3]; HER dose 4 g a.i./ha", "value": 30, "unit": "%"}, {"measurement": "HER effect [%]", "setting": "[3]; HER dose 4 g a.i./ha", "value": 85, "unit": "%"}]}]}
